Measurements: US4368267A, “Epoxidation of lower α-olefins” (priority 1980, dated 1983)

Experiments:
[1] = system: P(40), P(80), S(80) cell fractions of Methylosinus sp. (CRL-15, NRRL B-11,202); test: Oxidation of n-alkanes and n-alkenes by cell fractions; assay type: biochemical; conditions: for % Inhibition, Propylene-Epoxidizing Activity / % Inhibition, Methane-Hydroxylating Activity / Methane-Oxidizing Activity in presence of metal / Propylene-Oxidizing Activity in presence of metal: P(40) fraction; for % Inhibition, Propylene-Epoxidizing Activity / % Inhibition, Methane-Hydroxylating Activity: inhibitor 10^-3 M; for % Inhibition, Propylene-Epoxidizing Activity: uninhibited rate 4.1; for % Inhibition, Methane-Hydroxylating Activity: uninhibited rate 4.5; for Rate of Product Formation (substrate to 1,2-epoxide or alcohol): P(40) particulate fraction, 30° C.; for Methane-Oxidizing Activity in presence of metal / Propylene-Oxidizing Activity in presence of metal: metal 10^-3 M; for Methane-Oxidizing Activity in presence of metal: control 4.0; for Propylene-Oxidizing Activity in presence of metal: control […]
Method: Cells were washed twice with 25 mM potassium phosphate buffer, pH 7.0 containing 5 mM MgCl2. Cells were suspended in the same buffer. The cell suspensions at 4° C. were disintegrated by a single passage through a French Pressure cell (15,000 lb./in.^2) and centrifuged at 5000×g. for 15 min. to remove unbroken bacteria. The supernatant solution (crude extract) was then centrifuged at 40,000×g. for 30 min., yielding particulate P(40) and soluble S(40) fractions. The S(40) fraction was subsequently centrifuged at 80,000×g. for 60 min., yielding particulate P(80) and soluble S(80) fractions. The particulate fractions [P(40) and P(80)] were suspended in 25 mM potassium phosphate buffer, pH 7.0, containing 5 mM MgCl2 and homogenized at 4° C.
[…] The reaction mixtures contained in 1.0 ml: 150 mM potassium phosphate buffer, pH 7.0 containing 5 mM MgCl2, 0.6 ml; […] NADH, and cellular fraction.
Reaction mixtures were contained in 10 ml vials at 4° C. Vials were sealed with rubber caps. The gaseous phase in the vials was removed using vacuum and then was replaced with a gas mixture of methane or propylene and oxygen at a 1:1, v/v ratio. Oxidation of other gaseous n-alkanes and n-alkenes was examined as described above. For liquid substrates, 10 μl of substrate was used directly.
The products of epoxidation of n-alkenes and hydroxylation of n-alkanes were assayed by flame ionization gas chromatography using a stainless steel column (12'×1/8") packed with 10% Carbowax 20 M on 80/100 Chromosorb W and Porapak Q column. The column temperature was maintained isothermally at 120° C. The carrier gas flow rate was 30 ml/min. of helium. The various products were identified by retention time comparisons and co-chromatography with authentic standards.
Specific activities were expressed as μ moles of products formed per hour per mg. protein. Concentrations of protein in various fractions were determined by the method of Lowry et al., J. Biol. Chem. 193: 265-275 (1951).

[2] = system: Methylococcus capsulatus (CRL M1, NRRL B-11,219); test: Oxidation/epoxidation by washed cell suspensions; assay type: cell-based; conditions: methane-grown washed cells
[3] = system: whole cell suspensions of methylotrophs (C1 -utilizing microbes); conditions: 2-butanol added; biocatalyst from C1 -C4 gaseous alkane-grown microbes
[4] = system: Methylococcus capsulatus strain MC; test: Stimulation of propylene epoxidation in cell suspensions; assay type: cell-based; conditions: Propylene + 5 mM stimulator compound
Method: (§1) The pH of the nutrient medium was adjusted to 7.0 by the addition of acid or base and 50 ml aliquots of the nutrient medium was charged into a plurality of 300 ml shake flasks. The shake flasks were inoculated with an inoculating loop of cells from an agar plate containing homogeneous colonies of the microorganisms on the plate (the purity of the isolates were confirmed by microscopic examination). The isolates had been maintained on agar plates under an atmosphere of methane and air having a 1:1 v/v gas ratio which had been transferred every two weeks. The gaseous phase of the inoculated flasks was then replaced with a gas mixture comprised of methane and air having a ratio of 1:1 on a v/v basis. The inoculated flasks were sealed air tight and were incubated on a rotary shaker of orbital radius 2.5 cm at 250 rpm and at 30° C. for two days until the turbidity in the medium had developed.
(§2) The cells were harvested by centrifugation at 10,000 ×g at 4° C. for 30 minutes. The cell pellet was washed twice with a 0.15 M phosphate buffer at a pH of 7.0 (containing 0.002 M MgCl2). The washed cells were then suspended in a 0.15 M phosphate buffer at pH 7.0.
(§3) A 0.5 ml aliquot of each washed cell suspension (2 mg cells) was put into 10 ml vials at 4° C. which were sealed with a rubber cap. The gaseous phase of the vials was removed with vacuum and then was replaced with a gas mixture of alkene and oxygen at a 1:1 v/v ratio. It was then incubated at 30° C. on a rotary shaker at 300 rpm. Samples of product (3 μl) were withdrawn periodically with a microsyringe and the products were analyzed by gas chromatography (ionization flame detector column).
(§4) Several experiments were carried out using a plurality of compounds capable of generating the necessary reducing power (NADH2 or NADPH2) required for the epoxidation of alkenes or dienes. These experiments were carried out using cell suspensions of methane grown methylotrophs using the procedure as described in Example 1 except that a stimulator compound was added to the reaction medium.

[5] = system: Methylobacter capsulatus Y (NRRL B-11,201); test: Methane hydroxylation and propylene epoxidation by washed cell suspensions; assay type: cell-based; conditions: Propylene + 5 mM stimulator compound
Method: as §1, §2
as §3, with “The gaseous phase of the vials was removed with vacuum and then was replaced with a gas mixture of alkene and oxygen at a 1:1 v/v ratio.” left out
Several experiments were carried out using a plurality of compounds capable of generating the necessary reducing power (NADH2 or NADPH2) required for the epoxidation of alkenes or dienes. […]

[6] = system: Methylobacterium organophilum (CRL 26, NRRL B-11,222); test: Epoxidation/hydroxylation by washed cell suspensions; assay type: cell-based; conditions: Propylene + 5 mM stimulator compound
Method: as §1, §2, §3, §4

[7] = system: Methylosinus trichosporium OB3b (NRRL B-11,196); test: Methane hydroxylation and alkene epoxidation by washed cell suspensions; assay type: cell-based; conditions: methane-grown washed cells, 30° C.
Method: as §1, with “The shake flasks were inoculated with an inoculating loop of cells from an agar plate containing homogeneous colonies of the microorganisms on the plate (the purity of the isolates were confirmed by microscopic examination).” left out
as §2
as §3, with “A 0.5 ml aliquot of each washed cell suspension (2 mg cells) was put into 10 ml vials at 4° C. which were sealed with a rubber cap.” left out

[8] = system: Methylosinus sporium 5 (NRRL B-11,197); test: as above; assay type: cell-based; conditions: methane-grown washed cells, 30° C.
Method: as §1, with “The shake flasks were inoculated with an inoculating loop of cells from an agar plate containing homogeneous colonies of the microorganisms on the plate (the purity of the isolates were confirmed by microscopic examination).” left out
as §2
as §3, with “The gaseous phase of the vials was removed with vacuum and then was replaced with a gas mixture of alkene and oxygen at a 1:1 v/v ratio.” left out

[9] = system: Methylomonas albus BG8 (NRRL B-11,200); test: as above; assay type: cell-based; conditions: methane-grown washed cells; 0.2 g/100 ml dry weight of cells
Method: as §1, with “The shake flasks were inoculated with an inoculating loop of cells from an agar plate containing homogeneous colonies of the microorganisms on the plate (the purity of the isolates were confirmed by microscopic examination).” left out
as §2, §3

[10] = system: Methylocystis parvus OBBP (NRRL B-11,198); test: as above; assay type: cell-based; conditions: methane-grown washed cells; 0.2 g/100 ml dry weight of cells
Method: (§5) The pH of the nutrient medium was adjusted to 7.0 by the addition of acid or base and 50 ml aliquots of the nutrient medium was charged into a plurality of 300 ml shake flasks. […] The isolates had been maintained on agar plates under an atmosphere of methane and air having a 1:1 v/v gas ratio which had been transferred every two weeks. […] The inoculated flasks were sealed air tight and were incubated on a rotary shaker of orbital radius 2.5 cm at 250 rpm and at 30° C. for two days until the turbidity in the medium had developed.
as §2, §3

[11] = system: Methylomonas methanica S1 (NRRL B-11,199); test: as above; assay type: cell-based; conditions: methane-grown washed cells; 0.2 g/100 ml dry weight of cells
Method: as §5, §2, §3

c1cnc2c(c1)ccc1cccnc12 [1,10-phenanthroline, reference compound]
% Inhibition, Propylene-Epoxidizing Activity [1]: 93%
% Inhibition, Methane-Hydroxylating Activity [1]: 90%

CC(C)(C)C [2,2-dimethylpropane]
Reaction Rate, 2,2-dimethylpropane to 2,2-dimethylpropanol [2]: 0.085 μmoles/hr/mg biomass

CCC(C)O (stereo not shown) [2-Butanol]
Effect on epoxidation of gaseous n-alkenes [3]: somehow inhibited
Rate of Product Formation (Propylene Oxide) [4]: 21 nmoles/hr/mg protein
Rate of Product Formation (Propylene Oxide) [5]: 26 nmoles/hr/mg protein

Oc1cccc2cccnc12 [8-Hydroxyquinoline, reference compound]
% Inhibition, Propylene-Epoxidizing Activity [1]: 75%
% Inhibition, Methane-Hydroxylating Activity [1]: 80%

CC=O [Acetaldehyde]
Rate of Product Formation (Propylene Oxide) [6]: 13 nmoles/hr/mg protein
Rate of Product Formation (Propylene Oxide) [4]: 154 nmoles/hr/mg protein

C=CC=C [Butadiene]
Conversion rate, butadiene to 1,2-epoxybutene [7]: 2.6 μmole/hr/mg protein
Rate of Product Formation (substrate to 1,2-epoxide or alcohol) [1]: 0.63 μmoles/hr/mg of protein
Conversion rate, butadiene to 1,2-epoxybutene [8]: 1.5 μmole/hr/mg protein

C=CCC [Butene-1]
Conversion rate, butene-1 to 1,2-epoxybutane [7]: 0.45 μmole/hr/mg protein
Rate of Product Formation (substrate to 1,2-epoxide or alcohol) [1]: 2.18 μmoles/hr/mg of protein
Conversion rate, butene-1 to 1,2-epoxybutane [8]: 0.8 μmole/hr/mg protein

O=S(=O)([O-])[O-].[Cu+2] [Cupric Sulfate]
Methane-Oxidizing Activity in presence of metal [1]: 7.1 μmoles/hr/mg protein
Propylene-Oxidizing Activity in presence of metal [1]: 9.0 μmoles/hr/mg protein

[Cl][Cu] [Cuprous Chloride]
Methane-Oxidizing Activity in presence of metal [1]: 7.2 μmoles/hr/mg protein
Propylene-Oxidizing Activity in presence of metal [1]: 9.2 μmoles/hr/mg protein

COC [Dimethylether]
Rate of Product Formation (Propylene Oxide) [6]: 50 nmoles/hr/mg protein

CC [Ethane]
Rate of Product Formation (substrate to 1,2-epoxide or alcohol) [1]: 3.2 μmoles/hr/mg of protein

CCO [Ethanol]
Rate of Product Formation (Propylene Oxide) [6]: 124 nmoles/hr/mg protein
Rate of Product Formation (Propylene Oxide) [4]: 462 nmoles/hr/mg protein
Rate of Product Formation (Propylene Oxide) [5]: 370 nmoles/hr/mg protein

C=C [Ethylene]
Conversion rate, ethylene to ethylene oxide [9]: 1.2 μmole/hr/mg protein
Conversion rate, ethylene to ethylene oxide [7]: 1.9 μmole/hr/mg protein
Rate of Product Formation (substrate to 1,2-epoxide or alcohol) [1]: 1.27 μmoles/hr/mg of protein
Conversion rate, ethylene to ethylene oxide [8]: 1.1 μmole/hr/mg protein
Conversion rate, ethylene to ethylene oxide [10]: 0.9 μmole/hr/mg protein
Conversion rate, ethylene to ethylene oxide [11]: 0.95 μmole/hr/mg protein
